# Data published in patent US20210108199A1, “Treatment for aggressive cancers by targeting C9ORF72” (The Trustees of Columbia University in the City of New York, priority 2017, published 2021).
# What was measured:
# Type in all cases: cell-based
# U87 cells [1] = experiment: ptfLC3 fluorescent autophagy marker imaging; settings: U87 cells transfected with ptfLC3
# Protocol: Cells were plated on coverslips in 60-mm culture dishes, and after 48 hours washed twice with PBS followed by incubation with 4% paraformaldehyde (Sigma™) for 20 minutes. Cells then were washed three times with PBS, incubated with PBS/0.5% Triton™ X-100 for 1½ minutes, washed once with PBS and then blocked with 0.5% bovine serum albumin (Sigma™) in PBS for 30 minutes at room temperature before treatment with 100 μL of the diluted primary antibodies (1:1000) for 1 hour at room temperature. The coverslips were then washed three times with PBS and stained by incubation with 100 μL of diluted (1:100) secondary antibody (1:100). The coverslips were then washed three times with PBS and mounted on coverslips with a mounting media containing DAPI stain (Vectashield™, H-1200). Coverslips were imaged at room temperature (about 22° C.) using 40×, 1.3 NA or 63×, 1.4 NA oil immersion lenses on a confocal microscope (LSM 700; Carl Zeiss™).
# To this end, C9 was knocked down in U87 cells and employed a fluorescent autophagy marker ptfLC3 to mark autophagosomes and autophagolysosomes. […] The white arrows show vacuoles and the white box represents a zoom in of the cell area with vacuoles. […] The white box here represents a zoom in of the cell area with vacuoles, nuclei stained with DAPI (blue). FIG. 4B is a WB showing LAMP1 levels after control (siCtrl) and C9 KD (siC9; SEQ ID NO:631).
# U87 cells [2] = experiment: Dextran measurement of macropinocytosis; settings: fluorescein dextran
# Protocol: U87 cells were treated with control and C9 siRNA for a total of 3 days. At day 2, cells were treated with a final concentration of 20 μM dextran and incubased overnight. On day 3, cells were washed with phenol red-free DMEM and then imaged using excitation/emission for fluorescein (494/521) on an LSM 700; Carl Zeiss™ microscope.
# In this study, a fluid phase marker, fluorescein dextran, was added to the media. If the vacuoles are macropinosomes, the marker will be taken up and internalized, resulting in green fluorescent macropinocytosis.
# The right images are a merge between the left and middle images. The scale bar represents 10 μm. White arrows indicate the position of vacuoles. In FIG. 8, the upper panels are fluorescent images (Alexa™ 488) of U87 cells treated with control (siCtrl) and C9 (siC9; SEQ ID NO:631) siRNA as indicated incubated in fluorescein dextran (green). The lower panels are the same cells imaged in phase contrast.
# caspase-3, PARP1 = experiment: Western blot of caspase-3 and PARP1 cleavage; settings: U87 cells
# Protocol: (§1) For Western blot analysis, cells were lysed with lysis buffer (20 mM sodium phosphate (pH 7.0), 250 mM NaCl, 30 mM sodium pyrophosphate, 0.1% Nonidet™ P-40, 5 mM EDTA, 10 mM NaF, 0.1 mM Na3VO4, and 1 mM PMSF) supplemented with complete protease inhibitors (Roche™) and homogenized by passage through a 28 gauge needle. Protein concentration was measured with a Bio-Rad™ protein assay dye reagent and results were read using a spectrophotometer (BiophotometerPlus™ by Eppendorf™). Protein extracts were resolved by SDS PAGE on gradient (Thermo Fisher™) or 12% gels. Proteins were then electrotransferred at 350 mA for 80 minutes onto a PVDF membrane (Immobilon-P PVDF). Membranes were blocked with PBST with 5% milk and 1% BSA for 30 minutes. Quantitation of blots was performed Image Studio Lite software (LI-COR Biosciences™).
# To check known markers of apoptosis, including caspase-3 cleavage and PARP1 cleavage, U87 cells were treated with doxorubicin as a positive control for apoptotic markers. […] FIG. 17 is a set of WB visualizing the levels of cleaved and un-cleaved caspace-3, and cleaved and un-cleaved PARP1 in cells treated with control (siCtrl) and C9 (siC9; SEQ ID NO:631) siRNA, and U87 cells treated.
# PARP1 mRNA = experiment: qRT-PCR of PARP1 mRNA; settings: U87 cells
# Protocol: (§2) For most RNA experiments, RNA was isolated from cells using the Qiagen™ RNeasy minikit. Complementary DNA was generated using the Qiagen™ Quantitect™ reverse transcription kit with 0.5 μg of input RNA as measured with a NanoDrop spectrophotometer (Thermo Scientific™). Real-time PCR was carried out on an ABI StepOne Plus™ machine using power SYBR Green dye (Thermo Scientific™). Transcript levels were assayed in triplicate and normalized to RPL32 and HPS90 mRNAs. Relative changes in cDNA levels were calculated using the comparative Ct method (ΔΔCT method). All RT-qPCR primers were designed with Primer3Plus™ or retrieved from Primerbank™. Primer sequences are listed here, including in Table 3. All primers were purchased from Life Technologies™. H. Generation of p53 Knock Out U87 Cell Lines by CRISPR
# Statistical significance was assessed by an unpaired t-test: NS P>0.05, *P≤0.05, **P≤0.01, ***P≤0.001 ****P≤0.0001.
# p53 = experiment: Western blot of phospho-p53, p53 and p21; settings: U87 cells
# Protocol: as §1
# One of the responses to DNA damage is activation of p53 by ATM. Upon DNA damage, ATM activation leads to p53 phosphorylation, which activates p53 as a transcription factor. Since increased DNA damage was observed upon C9 KD, whether p53 is activated in C9 depleted cells was investigated. First, total p53 levels were measured in U87 cells treated with control and two independent siRNAs against C9. […] Then, the levels of phosphorylated (active) p53 (at s15) was measured. Phosphorylation of s15 on p53 was increased in both C9 siRNA samples.
# EGF mRNA = experiment: qRT-PCR of EGF mRNA; settings: U87 cells
# Protocol: as §2
# How C9 levels affect EGF signaling was investigated. […] Furthermore, after 48 and 72 hours, the reduction of EGF mRNA levels was about 97%. See FIG. 39, which presents data from qRT-PCR analysis, showing mRNA levels of C9ORF72 and EGF in U87 cells treated with control or C9 siRNA for 24, 48 and 72 hours (represented as fold change). Statistical significance was assessed by an unpaired t-test: NS P>0.05, *P≤0.05, **P≤0.01, ***P≤0.001 ****P 0.0001.
substance,measurement,setting,value
"siC9: siRNA targeting C9 mRNA: UUAAUGAAACAAUAAUCACUC (SEQ ID NO:631; sense) and GUGAUUAUUGUUUCAUUAAUC (SEQ ID NO:632; antisense) (listed as RNA, chemistry not given here)",LC3 staining of vacuoles,U87 cells [1],not stained by LC3
same,fluorescence of autophagolysosomes,U87 cells [1],increase fluorescence
same,dextran in vacuoles,U87 cells [2],formation of vacuoles filled with dextran
same,PARP1 cleavage,"caspase-3, PARP1",not observed
same,PARP1 protein,"caspase-3, PARP1",no PARP1 protein observed
same,caspase 3 cleavage,"caspase-3, PARP1",did not lead to caspase 3 cleavage
same,PARP1 mRNA,PARP1 mRNA,significant repression
same,p21 protein levels,p53,increased p21 protein levels
same,phosphorylation of s15 on p53,p53,increased
same,total p53 levels,p53,elevates p53 levels
same,reduction of EGF mRNA levels,EGF mRNA; 24 hours after C9 KD,50%
same,reduction of EGF mRNA levels,EGF mRNA; 48 hours,about 97%
same,reduction of EGF mRNA levels,EGF mRNA; 72 hours,about 97%
